From article PMC6154603, “Study on the Rationality for Antiviral Activity of Flos Lonicerae Japonicae-Fructus Forsythiae Herb Couple Preparations Improved by Chito-Oligosaccharide via Integral Pharmacokinetics” (Molecules : A Journal of Synthetic Chemistry and Natural …, 2017)

How the values were obtained:
[1] = tested on: influenza virus strain, A/PR8/34 (H1N1); format: cell-based; conditions: compared with PBS group; ribavirin 20 mg/kg orally as positive control; Figure S1
[2] = tested on: influenza A virus (H1N1); experiment: microbe, parasite or virus in culture; format: cell-based; conditions: for IC50: Influenza A virus, H1N1, MDCK, tested 0.0625-1.0000 mM, unit inferred, read-out: IC50 (anti-viral activity)
[3] = tested on: Caco-2 cell; experiment: In vitro Caco-2 cell transport model; format: in vitro ADME, human; conditions: Shuang-Huang-Lian, with 0.1% (w/v) of COS vs control
Excerpt: The protocol of Caco-2 cell study was shown previously.

[4] = Pharmacokinetics of caffeic acid derivatives after oral administration of the FLJ-FF herb couple; set-up: species or system rats; conditions: rat, in vivo
Experimental: The pharmacokinetics of caffeic acid derivatives in the FLJ-FF herb couple was studied in our previous study. Integral concentrations at each time point for the eight components were calculated based on the AUC-weighting method. The weighting coefficient for each component was calculated using Equations (4) and (5). […] AUC was determined using GraphPad Prism for Windows, version 5 (Graph Pad Software Inc., San Diego, CA, USA). […] Subsequently, plasma was prepared by centrifugation at 1816× g for 7 min and immediately analyzed or stored at −70 °C for further analysis after being mixed with 10 μL of 5% formic acid. The treatment and UPLC-ESI-MS/MS analysis for samples have been studied previously.

[5] = In vivo pharmacokinetic study of FLJ-FF herb couple preparations with or without COS; set-up: species or system rats; conditions: rat, po
Excerpt: The rats were administrated product A and A4 at the dosages of at the dosage of 32 g raw medicine per kilogram, product B and B4 at the dosage of 64 g raw medicine per kilogram, product C and C4 at the dosage of 48 g raw medicine per kilogram, and product D and D4 at the dosage of 160 g raw medicine per kilogram, respectively.

Compound	inhibition rate on influenza virus [1]	IC50 [2] [µM]	highest Papp-value increase [3] [fold]	AUC(0-inf) [4] [ng·h/mL]	AUC(0-t) [4] [ng·h/mL]	Cmax [4] [ng/mL]	MRT last [4] [h]	Tmax [4] [h]	half-life [4] [h]	AUC ([5]; AUC (Control)) [ng·h/mL]	antiviral activity, folds lower than that of forsythoside A [2] [folds]	AUC ([5]; 25 mg/kg, AUC (Absorption Enhancer)) [ng·h/mL]
NC(=O)c1ncn([C@@H]2O[C@H](CO)[C@@H](O)[C@H]2O)n1 [ribavirin]	remarkable increase	–	–	–	–	–	–	–	–	–	–	–
O=C(C=Cc1ccc(O)c(O)c1)OC1CC(O)(C(=O)O)CC(O)C1OC(=O)C=Cc1ccc(O)c(O)c1 (stereo not drawn) [3,4-dicaffeoylquinic acid]	–	401	5.86	213	141	66.7 ± 15.4	7.6	0.167	9.18 ± 0.649	–	–	–
O=C(/C=C/c1ccc(O)c(O)c1)O[C@@H]1C[C@](O)(C(=O)O)C[C@@H](OC(=O)/C=C/c2ccc(O)c(O)c2)[C@H]1O [3,5-dicaffeoylquinic acid]	–	393	8.66	54.2	53.1	70.5 ± 28.1	6.39	0.1667 ± 0	5.95 ± 0.559	57.7	–	–
O=C(C=Cc1ccc(O)c(O)c1)OC1C(O)CC(O)(C(=O)O)CC1O (stereo not drawn) [Cryptochlorogenic acid, cryptochlorogenic acid]	–	735	3.13	726	713	950 ± 201	4.84	0.167	4.64 ± 1.03	–	–	–
O=C(C=Cc1ccc(O)c(O)c1)OC1CC(O)(C(=O)O)CC(O)C1O (stereo not drawn) [Neochlorogenic acid]	–	722	–	715	579	575 ± 170	5.3	0.167	3.49 ± 0.423	–	–	–
O=C(/C=C/c1ccc(O)c(O)c1)O[C@@H]1C[C@](O)(C(=O)O)C[C@@H](O)[C@H]1O [Chlorogenic acid]	–	754	–	3160	3220	2500 ± 438	4.74	–	3.9 ± 0.699	638	2.47	968
